In patent US9029080B2, “Screening assay for insecticides” (priority 2008, dated 2015):
Read-outs that look alike come from different tables or passages of the source.

Experiments:
[1] = target: T1, ShaI_delN (Drosophila melanogaster, UniProt P17971); assay: ShaI_delN clonal lines, FLIPR blue membrane potential dye, KCl depolarization; type: cell-based; details: both the ShaI_delN clonal lines and the control pcDNA3 cell line, FLIPR
T1 construct: expressed in transfected cells; host or cells: CHO
Protocol: ShaI_DelN C10 and C15 were tested for function on the FLIPR using the Molecular Devices blue membrane potential dye. The cells were seeded at 60K cells/well in 96-well Costar plates in complete media and assayed for function at 24 hrs. Depolarization with 15-60 mM KCl caused a 2-2.8 fold higher activity in the clonal line than the pcDNA control cell line (FIG. 5). Clone 10 had slightly higher activity than clone 15.
FIG. 5: ShaI_DelN clones tested on FLIPR with KCl depolarization. We also tested some known K-channel blockers on channel activity on the FLIPR (FIG. 6). […] The ShaI_delN clonal cell lines lost their GFP expression and assay window with cell passage. At passage 12, only 10-15% of the cell population was GFP positive.
The effects of barium (Ba2+) on ShaI_delN function were tested. Barium is known to inhibit some open rectifier and inward rectifier K-channel activities. Cells were dye loaded in the presence of BaCl2 for 1 hr at RT and assayed on the FLIPR using KCl depolarization for channel activation.

[2] = target: SK2 channel (Homo sapiens, UniProt Q9H2S1); details: patch clamp; cited from earlier work
[3] = target: T2, Shaker channel plus H-kvβ A subunit (Drosophila melanogaster, UniProt P08510, INS512V); type: cell-based
T2 construct: expressed in transfected cells; host or cells: CHO-K1
Protocol: In order to detect the membrane depolarization elicited by KCl injection, the Membrane Potential sensitive dye was used both for FLIPR384 and […] experiments. Cells were analyzed in 384 clear-bottom black MPTs (MATRIX cat. #4324) by seeding 5000, 7500, 10000 cells/well 24 hrs before experiment. Plates were incubated with 40 μl/w of 0.625× membrane potential dye for 45-60 minutes at 37° C. or room temperature and measured at FLIPR instrument by injecting 10 μl/w of 5× antagonist (in the presence of 0.5% DMSO, as indicated) followed by 3-5 minutes fluorescence reading; then a second injection of 25 μl/w of 3× KCl in Standard Tyrode solution) was performed and fluorescence measured for further 3-4 minutes. In experiments with a single injection (agonist), plates were incubated with 20 μl/w of 1× dye and injected with 20 μl/w of 2× KCl in Standard Tyrode solution.
Kinetic data obtained from different well replicates were analyzed with FLIPR, Excel and Spotfire software, by calculating the Integral or Maximum-Minimum RFU values after the injection; the obtained means and standard deviations were utilized to create sigmoidal dose-response fits by GraphPad PRISM® or Spotfire software and to calculate EC50-IC50 values and Z′ factors.
FIG. 42. […]

[4] = target: T3, octopamine receptor (OctR, CG6919 dmOa2) (Drosophila melanogaster, UniProt Q9VCZ3); assay: OctR clone 55 FLIPR Fluo-4 calcium assay; type: cell-based; details: clone 55, same as published cAMP data
T3 construct: expressed in transfected cells; host or cells: CHO stably expressing G-alpha-16
Protocol: FIG. 62. Cells were plated at 10K/well in 384 well plates and allowed to incubate overnight at […]. The cells were assayed 18-24 hours after seeding. Media was removed and cells were dye loaded for 60 minutes with 2 μM Fluo-4. After 1 hour, dye was removed and 20 μl of buffer added to the plate and placed into FLIPR. The 1st addition was antagonist dose response curves and the 2nd addition was agonist dose response curves. Antagonists were challenged with 100 nM Octopamine. In addition, these compounds were tested in the parental cell line CHO-Galpha16.
Cells were plated at 10,000 cells/well in 50 μl into 384-well black TC plates and allowed to incubate overnight at 37° C./5% CO2. The cells were assayed 18-24 hours after seeding. Culture medium was removed by flicking and cells were dye loaded for 60 minutes with 20 μl of 2 μM Fluo-4 in assay buffer plus probenecid at 25° C. After one hour dye was removed by flicking and 20 μL of assay buffer was added, wait 5 min prior to placing into the FLIPR and run using a two-addition protocol. The first addition (20 ul, 2×) was 0.5% DMSO final in assay buffer. The second addition (20 ul, 3×) was either assay buffer or 100 nM octopamine final.

[5] = target: T4, ShaI/KChIP (Drosophila melanogaster, UniProt P17971); assay: ShaI/KChIP FLIPR membrane potential assay, KCl depolarization; type: cell-based
T4 construct: expressed in transfected cells; subclone 18-13-20
T4 sequence (P17971 with tags, fused parts or gaps isoform P17971-1): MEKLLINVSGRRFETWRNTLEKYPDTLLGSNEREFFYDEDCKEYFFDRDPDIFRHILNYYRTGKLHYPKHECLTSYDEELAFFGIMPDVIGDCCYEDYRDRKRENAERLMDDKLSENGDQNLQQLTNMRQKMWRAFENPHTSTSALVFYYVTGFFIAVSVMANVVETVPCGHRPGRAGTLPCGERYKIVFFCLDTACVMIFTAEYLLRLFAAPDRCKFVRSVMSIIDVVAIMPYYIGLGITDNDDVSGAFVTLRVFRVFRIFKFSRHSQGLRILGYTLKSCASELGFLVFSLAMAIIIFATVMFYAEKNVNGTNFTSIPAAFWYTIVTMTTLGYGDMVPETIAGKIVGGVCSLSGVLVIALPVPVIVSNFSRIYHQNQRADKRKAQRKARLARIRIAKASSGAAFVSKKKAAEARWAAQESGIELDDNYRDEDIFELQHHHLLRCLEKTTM
Protocol: This assay uses two fluid additions to permit the detection of activators and antagonists in a single experiment (FIG. 17). In screening, test compounds are added in the first addition and allowed to incubate for three minutes. An activating dose of KCl is then introduced in the second addition and the fluorescence read for an additional three minutes. Controls are run for both additions.
Cells were dispensed in a 50 μl volume containing 7,500 cells into 384-well TC clear/black assay plates (Greiner 781091) using a Multidrop 384 dispenser, incubated at ambient temperature for one hour (to reduce edge effects), and incubated overnight at 37° C./5% CO2. The cells were assayed 18-24 hours after seeding, at which point they were just approaching confluency in the wells. Culture medium was removed by flicking and tapping it out of the plate, and cells were loaded with 20 ul/well of 1× blue membrane potential dye in assay buffer for 30 minutes at 25° C. After 30 minutes the assay plate was placed into the FLIPR and run using a two-addition protocol. The first addition (5×, 5 ul) contained 2.5% DMSO in assay buffer. The pipetting height was set at 15 and the speed 20. The plate was read for three minutes after this addition. The second addition (2×, 25 ul) was either assay buffer or 120 mM isometrically-substituted KCl (i.e., KCl substituted for NaCl on a 1:1 molar basis). The height was 20 and the speed 25. Aspirate speeds were set at the lowest values and no hold or expel volumes applied. The plate was read for an additional three minutes after the second addition. The exported statistics were typically configured as stat1=average of 190-200 (the interval just before the first addition) and stat2=maximum of 260-maximum allowed. Subtract bias was set at 1 and negative control correction was OFF. Z′ statistics (an index of “screenability”, Z′>0.5=single-pass screen) were calculated using the following formula: Z′=1−((3σmax+3σmin)/(Iμmax−μminI)).
FIG. 32: BIOMOL compounds—primary screening data. ScreenWorks screenshots showing primary FLIPR data for BIOMOL compound screening. ShaI/KChIP 20 cells were plated at 7500 cells/well in 384-well assay plates and screened the following day. Culture medium was removed by flicking the plates and the cells were loaded with 20 ul 1× membrane potential dye per well for 0.5 hours at 25° C. A two-addition protocol was used. The first addition was 5 ul 5× control or compound in 2.5% DMSO in assay buffer (0.5% [final]) read for 180 sec, and the second addition was 25 ul 2× control or 120 mM isometrically-substituted KCl in assay buffer (0-60 mM [final]) read for an additional 180 sec. Statistics were exported using the average of reads 180-200 and the maximum of reads 260-maximum allowed. Subtract bias was set at 1 and negative control correction was OFF. Control columns ½ and 23/24 are described starting on pg. 53 of this document. Inset: Screenshot of group averages for the control and compound wells highlighted in the primary data screen.
The 3222 unique members of the BioFocus SoftFocus Ion Channel Libraries #1-4 (#SF101-04) were screened in 384-well four-point mode against ShaI/KChIP at 10 uM in a combined activator and antagonist screen. The same FLIPR protocol was used as for the BIOMOL screening and was carried out over four non-consecutive days. The following compound preparation protocol was used to prepare screening plates: Briefly, ShaI-KChIP cells were seeded in 384-well plates at 7500 cells/well in 50 ul and incubated overnight at 37° C./5% CO2. The next day, culture medium was removed, 20 ul of 1×FMP dye was added, and the cell plate was incubated at 27° C. for 30 minutes. After incubation, the cell plate was placed into the Tetra and a two-addition protocol was used. The 1st addition was 5 μl of 5× compound (50 μM) with a three minute read. […] The 2nd addition was 25 ul of 2× activation buffer (120 mM isometric KCl substitution for NaCl) and read for an additional two minutes. […]

COC(=O)C1=C(C)NC(C)=C([N+](=O)[O-])C1c1ccccc1C(F)(F)F (stereo not drawn) [Bay K8644]
inhibition of KCl depolarization [1]: dose dependent inhibition

NC(=O)N1c2ccccc2C=Cc2ccccc21 [carbamazepine]
block of SK2 channel currents [2]: micro-molar affinity

O=C(O)c1cccnc1Nc1cccc(C(F)(F)F)c1 [niflumic acid]
inhibition of KCl depolarization [1]: dose dependent inhibition

CC[N+](CC)(CC)CC [TEA, Tetraethylammonium]
effect on KCl stimulation [3]: blocking effect is visible

Cc1ccc(/N=C/N(C)/C=N/c2ccc(C)cc2C)c(C)c1 [amitraz]
rank order of potency (agonists) [4]: naphazoline>octopamine>amitraz>clonidine>tolazoline

c1ccc2c(CC3=NCCN3)cccc2c1 [naphazoline]
rank order of potency (agonists) [4]: naphazoline>octopamine>amitraz>clonidine>tolazoline

[Cl-].[K+] [KCl, reference compound]
EC50 ([5]; ShaI/KChIP 18-13 cells, isometrically-substituted KCl, fixed top response, read-out: EC50): 30 mM | EC50 ([5]; ShaI/KChIP 20 cells, three days, standard deviation 5 mM, read-out: EC50 mean): 36 mM | Activator concentration (~EC80) ([3]; in Activation buffer, high-throughput screening parameter): ~50 mM

Nc1c2c(nc3ccccc13)CCCC2 [tacrine]
block of SK2 channel currents [2]: micro-molar affinity

O=C(NCC1CCCCN1)c1cc(OCC(F)(F)F)ccc1OCC(F)(F)F (stereo not drawn) [Flecainide]
inhibition of KCl depolarization [1]: did not show any inhibition

COC(=O)C1=C(C)NC(C)=C(C(=O)OCCN(C)Cc2ccccc2)C1c1cccc([N+](=O)[O-])c1 (stereo not drawn) [nicardipine]
inhibition of KCl depolarization [1]: dose dependent inhibition

C=C[C@H]1CN2CC[C@@H]1CC2[C@@H](O)c1ccnc2ccc(OC)cc12 (stereo in doubt) [quinidine, (2-ethenyl-4-azabicyclo[2.2.2]oct-5-yl)-(6-methoxyquinolin-4-yl)-methanol]
inhibition of KCl depolarization [1]: dose dependent inhibition

c1ccc(CC2=NCCN2)cc1 [tolazoline]
rank order of potency (agonists) [4]: naphazoline>octopamine>amitraz>clonidine>tolazoline

CN(C)CCC=C1c2ccccc2CCc2ccccc21 [amitriptyline]
block of SK2 channel currents [2]: micro-molar affinity
